According to patent publication US9814709B2, “Bruton's tyrosine kinase inhibitor” (HEFEI INSTITUTES OF PHYSICAL SCIENCE, CHINESE ACADEMY OF …, priority 2014, dated 2017):

Test system: SD rat adjuvant arthritis (AA) model
Test: SD rat adjuvant arthritis (AA) model, arthritis index
Format: in vivo
Description: In this example, SD rat adjuvant arthritis (AA) model (purchased from the Experimental Animal Center of Anhui Province) was used. PCI-32765 and methotrexate (MTX) were used as positive control (both purchased from Shanghai Chemexpress). The therapeutic effect of Compound 1 on AA rats was studied via the combination of in vivo and in vitro administration. 10 mg/nal of complete Freund's adjuvant (CFA, purchased from Shanghai Chemexpress) was mixed well, and 0.1 ml of CFA was intracutaneously injected into each rat at right posterior plantar to induce inflammation. The normal group was injected with saline via the same method. On the 17th day, the successful modeling male SD rats were randomly divided into 7 groups with 10 rats in each group, namely the model group, the small/medium/large dose of Compound 1 group (12.5, 25, 50 mg/kg/per administration, intraperitoneal injection, one administration per day for 16 days), the Compound 19 group (25 mg/kg/per administration, intraperitoneal injection, one administration per day for 16 days), the positive control PCI-32765 group (25 mg/kg/per administration, intraperitoneal injection, one administration per day for 16 days), the MTX group (0.5 mg/kg, intragastrical, one administration every 3 days, totally 6 times). The rats in the model group were intraperitoneally injected with the same amount of DMSO solution.

## CN(Cc1cnc2nc(N)nc(N)c2n1)c1ccc(C(=O)N[C@@H](CCC(=O)O)C(=O)O)cc1 [MTX, methotrexate, reference compound]
0.5 mg/kg intragastrical every 3 days, starting from day 21
  effect on arthritis index of rats compared with the model group: significantly reduced

## C=CC(=O)N1CCC[C@@H](n2nc(-c3ccc(Oc4ccccc4)cc3)c3c(N)ncnc32)C1 [PCI-32765, reference compound]
25 mg/kg intraperitoneal once per day, starting from day 24
  effect on arthritis index of rats: significantly reduce
